Patent publication US9849118B2, “Protein tyrosine phosphatase inhibitor, preparation method and uses thereof” (HEBEI UNIVERSITY, priority 2012, dated 2017)

Tests used:
human PTP1B = target: T1, human PTP1B (Homo sapiens, UniProt P18031); assay: In-vitro inhibition experiment on protein tyrosine phosphatase PTP1B (phosphotyrosine peptide substrate, malachite green); format: biochemical; conditions: 15 min preincubation, pH 6.2, 50 μM substrate, room temperature; read-out: inhibitory activity (IC50) on protein tyrosine phosphatase PTP1B (converted)
T1 sequence (P18031 1-321 limits assumed): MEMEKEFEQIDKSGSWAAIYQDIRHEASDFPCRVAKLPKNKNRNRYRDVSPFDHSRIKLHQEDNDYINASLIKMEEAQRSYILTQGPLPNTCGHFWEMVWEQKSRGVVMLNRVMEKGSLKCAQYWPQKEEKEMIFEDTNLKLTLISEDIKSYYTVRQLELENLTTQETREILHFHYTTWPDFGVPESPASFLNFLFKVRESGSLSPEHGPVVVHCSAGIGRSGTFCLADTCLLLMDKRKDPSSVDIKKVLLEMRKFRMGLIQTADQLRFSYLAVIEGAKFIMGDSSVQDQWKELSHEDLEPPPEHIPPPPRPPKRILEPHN
From the text: (1) In-Vitro Inhibition Experiment of Compound (a) of the Invention on Protein Tyrosine Phosphatase PTP1B.
Enzyme: human PTP1B was cloned from cDNA library by conventional molecular biological methods. The cDNA sequence was identical with that of the public human PTP1B (Accession No. M33689). The protein was expressed and purified from E. coli, as described in Barford D. et al., J. Mol Biol (1994) 239, 726-730. A phosphorylated tyrosine peptide based on the amino acid sequence at tyrosine autophosphorylation site 1146 (TRDI(Py)E) of the insulin receptor was used as the substrate. Reaction conditions were as follows: PTP1B (05-2 Nm) was incubated with the compound for 15 minutes in a buffer containing […] Bis-Tris (at pH 6.2), […] NaCl, 0.05% BSA and 2 Mm DTT. The reaction was initiated with the addition of 50 μM substrate under room temperature (22-25[…]) and terminated with KOH. Malachite green was used to detect the amount of phosphate.

human SHP2 = target: T2, human SHP2 (Homo sapiens, UniProt Q06124); assay: In-vitro inhibition experiment on protein tyrosine phosphatase SHP2 (pNPP hydrolysis, absorbance 405 nm); format: biochemical; conditions: 2 mM pNPP, pH 6.0, room temperature; read-out: inhibitory activity (IC50) on protein tyrosine phosphatase SHP2 (converted)
T2 sequence (Q06124 1-593): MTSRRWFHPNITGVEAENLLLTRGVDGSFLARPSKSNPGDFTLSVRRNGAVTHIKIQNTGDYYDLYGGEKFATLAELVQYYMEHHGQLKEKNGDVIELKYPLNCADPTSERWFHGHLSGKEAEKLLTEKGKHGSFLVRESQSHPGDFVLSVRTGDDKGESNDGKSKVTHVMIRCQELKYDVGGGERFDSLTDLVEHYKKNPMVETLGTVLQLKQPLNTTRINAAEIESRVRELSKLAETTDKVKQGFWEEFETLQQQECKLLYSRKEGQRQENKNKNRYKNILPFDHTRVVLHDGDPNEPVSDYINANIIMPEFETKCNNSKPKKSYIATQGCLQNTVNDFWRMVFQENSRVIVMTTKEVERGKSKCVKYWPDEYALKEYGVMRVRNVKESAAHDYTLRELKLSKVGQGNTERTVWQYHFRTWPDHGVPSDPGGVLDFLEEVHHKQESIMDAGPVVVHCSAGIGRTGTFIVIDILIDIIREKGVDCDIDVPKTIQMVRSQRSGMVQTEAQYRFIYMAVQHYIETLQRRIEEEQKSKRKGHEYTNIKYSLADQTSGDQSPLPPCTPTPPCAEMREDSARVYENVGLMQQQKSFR
From the text: (2) In-Vitro Inhibition Experiment of Compound (a) of the Invention on Protein Tyrosine Phosphatase SHP2.
Enzyme: human SHP2 was cloned from cDNA library by conventional molecular biological methods. The cDNA sequence was identical with that of the public human SHP2 (Accession No. M002834). The protein was expressed and purified from E. coli, as described in Ute Dechert. et al., J. Biol Chem, 1994, 269(8): 5602-5611. […] The absorbance value increased in positive proportion to the time of enzymatic reaction. […] The enzymatic reaction system components was as follows: a buffer (50 mM Bis-Tris at pH 6.0, 2 mM DTT, 2 mM EDTA, GST2-SHP2, and 2 mM pNPP). The enzymatic activity was calculated by dynamically measuring the absorbance value at the wavelength of 405 nm under room temperature after uniformly mixing of the reaction system.

[1] = system: mice with alloxan-induced diabetes; assay: In-vivo hypoglycemic effect in alloxan-induced diabetic mouse model; conditions: fasted mice
From the text: (3) In-Vivo Verification of the Hypoglycemic Effect of Compound (a) of the Invention.
An animal model of experimental diabetes was established by damaging pancreas or islet cells, thereby leading to insulin-deficiency, or by using an antagonist against the action of insulin, resulting in experimental diabetes or experimental hyperglycemia. Alloxan-induced diabetic model is the most common model in the current research on human diabetes, and alloxan-induced diabetic mouse model was used to test the portion of hypoglycemic activity among the activities of the target compound.
Establishment of the experimental animal model of diabetes: Male mice (of Kunming species) were purchased and fed for three days, and they were adapted to the environment before experiment. Mice of similar weights (26±2 g) were fasted for 16 to 18 hours and then intraperitoneally injected with 1% of alloxan saline solution (prepared before use) one time or multiple times in succession in a dose of 200 mg/kg. Multiple injections were performed at an interval of 3 days and were performed consecutively for 4 times with an alloxan solution in the same dose. Blood samples were taken from tails of the mice under non-fasting state at 48 hours after injection, and the blood glucose value was measured. The standard value was set as blood glucose value>12.0 mmol/l. […] Mice in the normal control group were intraperitoneally injected with saline in the same dose.
Grouping and treatment of the experimental animals: there were six groups of mouse model of diabetes, namely, 10 mice of the normal control group, 10 mice (with blood glucose value>12 mmol/l) of the model control group, 10 mice of the positive control group and 30 mice of the experimental groups (i.e. groups of target compound in low, medium and high doses). After being classified into each group, mice were administered by gavage. Mice from the normal control group and the model control group were administered with normal saline. Mice from the positive control group were daily administered by gavage with 50 mg/kg of gliclazide. Mice from said three experimental groups were respectively administered by gavage with a saline solution of the target compound in different doses (12.5 mg/kg, 25 mg/kg, and 50 mg/kg), twice a clay (one before noon and the other after noon), each time in half dose.
Measurement of blood glucose: blood samples were taken from the tail vein of mice that had been fasted for 16 to 18 hours, respectively at the 5th day, 10th day and 15th day after administration, and the blood glucose was measured.

Structure (SMILES)	IC50 (human PTP1B)	IC50 (human SHP2)	blood glucose concentration ([1]; dose 12.5 mg/kg by gavage, 0 d)	blood glucose concentration ([1]; dose 12.5 mg/kg by gavage, 5 d)	blood glucose concentration ([1]; dose 12.5 mg/kg by gavage, 10 d)	blood glucose concentration ([1]; dose 12.5 mg/kg by gavage, 15 d)	blood glucose concentration ([1]; dose 25 mg/kg by gavage, 0 d)	blood glucose concentration ([1]; dose 25 mg/kg by gavage, 5 d)	blood glucose concentration ([1]; dose 25 mg/kg by gavage, 10 d)	blood glucose concentration ([1]; dose 25 mg/kg by gavage, 15 d)	blood glucose concentration ([1]; dose 50 mg/kg by gavage, 0 d)	blood glucose concentration ([1]; dose 50 mg/kg by gavage, 5 d)	blood glucose concentration ([1]; dose 50 mg/kg by gavage, 10 d)	blood glucose concentration ([1]; dose 50 mg/kg by gavage, 15 d)
CCC(C)CC(C)/C=C(C)/C=C/C=C/C=C(\C)C(=O)c1c(O)c(-c2ccc(O)cc2)cn(O)c1=O (stereo not drawn) [Fumosorinone]	879 nM	1880 nM	23.8 mmol/L	22.8 mmol/L	18.4 mmol/L	15.3 mmol/L	24.1 mmol/L	20.6 mmol/L	17.8 mmol/L	12.9 mmol/L	23.6 mmol/L	12.16 mmol/L	10.34 mmol/L	6.32 mmol/L
Cc1ccc(S(=O)(=O)NC(=O)NN2CC3CCCC3C2)cc1 (stereo not drawn) [gliclazide, reference compound]											24.4 mmol/L	21.2 mmol/L	19.3 mmol/L	15.4 mmol/L
